The record followed here is EP0414533A1, “Use of iodopropargyl esters of alpha-amino acid derivatives as antimicrobial agents” (ROHM AND HAAS COMPANY, priority 1989, dated 1991).

The structures appear in SMILES notation. In brackets after ≈: the same amount, converted by molar mass. Counter-ions that a name gives are not always drawn. Like-named read-outs stand apart in the source and are kept apart here.

What is called MIC is the lowest concentration that inhibits growth of the organism.

The subject of assay [1] is Aspergillus niger (ANIG). Description: Minimum inhibitory concentration (MIC), broth two-fold serial dilution test. Type of assay: cell-based. The note with it: Aspergillus niger.
The test system of assay [2] is Aureobasidium pullulans (APUL). Described as above. Conditions: Aureobasidium pullulans. It counts as cell-based.
Assay [3] relates to Botrytis cinerea (BOC). Description: In-vitro plant fungicide test. It counts as cell-based. Conditions: Botrytis cinerea, 25 ppm; Table IVa; *=Phytotoxic; read-out: % Control at 25 ppm BOC.
For assay [4], the system named is Fusarium roseum (FUS). Description: In-vitro plant fungicide test. Conditions: Fusarium sambucinum, read-out: % Control at 25 ppm FUS, 25 ppm; Table IVa; *=Phytotoxic. Type of assay: cell-based.
Assay [5] has as its system Cochliobolus sativus (HEL). Description: In-vitro plant fungicide test. Type of assay: cell-based. Conditions: Bipolaris sorokiniana, 25 ppm; Table IVa; *=Phytotoxic; read-out: % Control at 25 ppm HEL.
Assay [6] concerns Phytophthora capsici (PHY). The experiment in a line: In-vitro plant fungicide test. Type of assay: cell-based. The note with it: Phytophthora capsici; 25 ppm; Table IVa; read-out: % Control at 25 ppm PHY.
Assay [7] deals with Piricularia oryzae (PIR). The experiment in a line: microbe, parasite or virus in culture. Type of assay: cell-based. The note with it: read-out: % Control at 25 ppm PIR.
Assay [8] relates to Pythium ultimum (PYU). Description: In-vitro plant fungicide test. Conditions: Globisporangium ultimum; 25 ppm; Table IVa; read-out: % Control at 25 ppm PYU. It counts as cell-based.
Assay [9] relates to Rhizoctonia solani (RHI). Description: In-vitro plant fungicide test. It counts as cell-based. The note with it: Rhizoctonia solani; 25 ppm; Table IVa; read-out: % Control at 25 ppm RHI.
The subject of assay [10] is Septoria nodorum (SEP). Description: In-vitro plant fungicide test. Type of assay: cell-based. Conditions: Parastagonospora nodorum, 25 ppm; Table IVa; read-out: % Control at 25 ppm SEP.
Assay [11] has as its system Xanthomonas campestris (XAN). The experiment in a line: In-vitro plant fungicide test. Conditions: Xanthomonas campestris; 25 ppm; Table IVa; read-out: % Control at 25 ppm XAN. Type of assay: cell-based.
Assay [12] has as its system THREE FUNGI. The experiment in a line: MIC test against three fungi in Mycophile Broth, pH 5.0, read after 8 days (Table VII). It counts as cell-based. The note with it: 192 h.
Assay [13] has as its system Pseudomonas fluorescens (PSFL). Description: Minimum inhibitory concentration (MIC), broth two-fold serial dilution test. Conditions: Pseudomonas fluorescens, read-out: MIC (G-) PSFL, M9G (minimal salts media with glucose).
Text: (§1) When the test is ready to be done, each vessel in the dilution series, except the first vessel, contains an equal volume of compound free broth. The first vessel contains twice the volume of broth with the starting concentration of test compound. One half of the broth from the first vessel is transferred to the second vessel. After being mixed, one half the resulting volume is removed from the second vessel and transferred to the third vessel. The entire cycle is repeated sufficiently to give a series of concentrations amounting to 500, 250, 125, 63, 31, 16, 8, and 4 ppm (or 100, 50, 25, 12.5, 6.2, 3.1, 1.6, and 0.8), respectively.
(§2) Each vessel is then inoculated with a cell suspension of the appropriate test organism. Bacteria are grown in broth, fungi on agar slants for a time and at a temperature appropriate to the species being tested, and algae are a mixture of green algae and blue-green bacteria grown in a nutrient media. At the end of the growth period, in the case of bacteria, the broth is vortexed to disperse the cells.
(§3) The vessels are then incubated at the appropriate temperature. After the incubation, the vessels are examined for growth/no growth.
Assay [14] relates to Pseudomonas aerugenosa (PSAE). The description is as above. Conditions: Pseudomonas, read-out: MIC (G-) PSAE, M9G (minimal salts media with glucose).
Text: as §1, §2, §3
For assay [15], the system named is Escherichia coli (ECOL). The assay is described as above. The note with it: Escherichia coli, read-out: MIC (G-) ECOL, M9G (minimal salts media with glucose).
The subject of assay [16] is Staphylococcus aureus (SAUR). Described as above. Conditions: Staphylococcus aureus, read-out: MIC (G+) SAUR, M9G (minimal salts media with glucose).
Setting [17] is: Aspergillus niger, pH 5, read-out: MIC ANIG, Aspergillus niger, serial dilutions from 50 ppm, read after 8 days of incubation.
Setting [18] is: Aureobasidium pullulans, pH 5, read-out: MIC APUL, Aureobasidium pullulans, serial dilutions from 50 ppm, read after 8 days of incubation.
[19] abbreviates: Gloeophyllum trabeum, pH 5, read-out: MIC GTRA, Gloeophyllum trabeum, serial dilutions from 50 ppm, read after 8 days of incubation.
Where [20] appears, read: M9G (minimal salts media with glucose), Table IIIc, iodopropargyl esters of peptides, read-out: MIC (F) ANIG.
Where [21] appears, read: M9G (minimal salts media with glucose), Table IIIc, iodopropargyl esters of peptides, read-out: MIC (F) APUL.
Where [22] appears, read: Aspergillus niger, serial dilutions from 50 ppm, read after 8 days of incubation, read-out: MIC ANIG.
Setting [23] is: Aureobasidium pullulans, serial dilutions from 50 ppm, read after 8 days of incubation, read-out: MIC APUL.
The mark [24] stands for this setting: Gloeophyllum trabeum, serial dilutions from 50 ppm, read after 8 days of incubation, read-out: MIC GTRA.
The mark [25] stands for this setting: Table IIIc, iodopropargyl esters of peptides.

`C[C@@H](OCc1ccccc1)[C@H](N)C(=O)OCC#CI` [Compound 11, O-benzyl-L-threonine iodopropargyl ester trifluoroacetate]: the MIC in assay [1] (read-out: MIC (F) ANIG, M9G (minimal salts media with glucose), Table IIIa) was 6.3 µg/mL; in assay [2] (read-out: MIC (F) APUL, M9G (minimal salts media with glucose), Table IIIa) it was 3 µg/mL; in assay [12] (setting [17]) it was 25 µg/mL; in assay [12] (setting [18]), 50 µg/mL; in [12] (setting [19]), 12.5 µg/mL; in assay [13] (Table IIIa), above 100 µg/mL. Further, the MIC in assay [14] (Table IIIa), in assay [15] (Table IIIa) and in assay [16] (Table IIIa) was above 100 µg/mL each time. In addition, the inhibition of growth at 25 ppm in [3] was determined as 0%; in assay [4], 100%; in [5], 95%; in [6], 100%; in assay [7] it was 100%; in assay [8] it was 100%. The inhibition of growth at 25 ppm worked out at 100% in assay [9], 100% in assay [10] and 0% in assay [11].

For `C[C@H](NC(=O)OC(C)(C)C)C(=O)NCC(=O)OCC#CI` [Compound 12, N-t-butoxycarbonyl-L-alanylglycine iodopropargyl ester], the MIC is 6 µg/mL in assay [1] (setting [20]); below 0.8 µg/mL in assay [2] (setting [21]); 25 µg/mL (≈ 60.9 µM) in assay [12] (setting [22]); above 50 µg/mL in assay [12] (setting [23]); 6.2 µg/mL (≈ 15.1 µM) in assay [12] (setting [24]); 50 µg/mL in assay [13] (setting [25]). Further, the MIC in assay [14] (setting [25]), in [15] (setting [25]) and in assay [16] (setting [25]) was 50 µg/mL in each case. In addition, the inhibition of growth at 25 ppm stood at 0% in [3]; 0% in [4]; 0% in assay [5]; 100% in assay [6]; 100% in [7]; 100% in [8]. The figures for the inhibition of growth at 25 ppm in assay [9], in [10] and in assay [11] were 100%, 95% and 0%, respectively.

Take `C[C@H](NC(=O)OC(C)(C)C)C(=O)N[C@@H](C)C(=O)OCC#CI` [Compound 13, N-t-butoxycarbonyl-L-alanyl-L-alanine iodopropargyl ester]: the MIC was below 0.8 µg/mL in assay [1] (setting [20]); below 0.8 µg/mL in assay [2] (setting [21]); 25 µg/mL (≈ 58.9 µM) in assay [12] (setting [22]); 50 µg/mL (≈ 118 µM) in assay [12] (setting [23]); 6.2 µg/mL (≈ 14.6 µM) in [12] (setting [24]); 50 µg/mL in assay [13] (setting [25]). Besides, the minimal inhibitory concentration (MIC) in [14] (setting [25]) turned out to be 50 µg/mL; in [15] (setting [25]), 100 µg/mL; in assay [16] (setting [25]), 50 µg/mL. Moreover, the inhibition of growth at 25 ppm was 50% in [3]; 100% in assay [4]; 100% in assay [5]; 100% in assay [6]; 100% in [7]; 100% in assay [8]. Moreover, the inhibition of growth at 25 ppm is 100% in [9], 100% in assay [10] and 0% in assay [11].

As to `C[C@H](NC(=O)OC(C)(C)C)C(=O)N[C@@H](COCc1ccccc1)C(=O)OCC#CI` [Compound 14, N-t-butoxycarbonyl-L-alanyl-O-benzyl-L-serine iodopropargyl ester], the MIC in [1] (setting [20]) was 6 µg/mL; in assay [2] (setting [21]), below 0.8 µg/mL; in assay [12] (setting [22]), 50 µg/mL (≈ 94.3 µM); in assay [12] (setting [23]) it was above 50 µg/mL; in [12] (setting [24]), 12.5 µg/mL (≈ 23.6 µM); in assay [13] (setting [25]) it was 100 µg/mL. The MIC in assay [14] (setting [25]) was 50 µg/mL; in assay [15] (setting [25]), above 100 µg/mL; in assay [16] (setting [25]), 100 µg/mL. For the same compound, the inhibition of growth at 25 ppm in [3] stood at 0%; in assay [4], 100%; in assay [5] it was 50%; in assay [6], 75%; in assay [7], 100%; in assay [8], 0%. The inhibition of growth at 25 ppm in [9] was determined as 90%; in assay [10], 0%; in assay [11] it was 0%.

With `C[C@H](NC(=O)OC(C)(C)C)C(=O)N[C@@H](CSCc1ccccc1)C(=O)OCC#CI` [Compound 15, N-t-butoxycarbonyl-L-alanyl-S-benzyl-L-cysteine iodopropargyl ester], the MIC was 6 µg/mL in [1] (setting [20]); 1.6 µg/mL in assay [2] (setting [21]); above 50 µg/mL in assay [12] (setting [22]); above 50 µg/mL in assay [12] (setting [23]); 50 µg/mL (≈ 91.5 µM) in assay [12] (setting [24]); above 100 µg/mL in assay [13] (setting [25]). Besides, the MIC in [14] (setting [25]), in assay [15] (setting [25]) and in [16] (setting [25]) was above 100 µg/mL each time. Moreover, the inhibition of growth at 25 ppm in assay [3] stood at 0%; in assay [4], 100%; in [5] it was 0%; in assay [6], 100%; in assay [7] it was 100%; in [8] it was 100%. The inhibition of growth at 25 ppm in assay [9] was 100%; in [10], 100%; in assay [11], 0%.

As for `C[C@H](NC(=O)OC(C)(C)C)C(=O)N[C@H](C(=O)OCC#CI)[C@@H](C)OCc1ccccc1` [Compound 16, N-t-butoxycarbonyl-L-alanyl-O-benzyl-L-threonine iodopropargyl ester], the MIC in [1] (setting [20]) is 13 µg/mL; in [2] (setting [21]), below 0.8 µg/mL; in assay [12] (setting [22]) it was above 50 µg/mL; in [12] (setting [23]) it was above 50 µg/mL; in assay [12] (setting [24]), 25 µg/mL (≈ 45.9 µM); in [13] (setting [25]) it was above 100 µg/mL. The MIC in [14] (setting [25]) is above 100 µg/mL; in assay [15] (setting [25]), above 100 µg/mL; in assay [16] (setting [25]), 6 µg/mL. The inhibition of growth at 25 ppm in [3] turned out to be 0%; in assay [4], 0%; in [5] it was 0%; in assay [6], 0%; in [7] it was 100%; in assay [8], 100%. In addition, the inhibition of growth at 25 ppm in assay [9] amounted to 100%; in [10] it was 100%; in assay [11] it was 0%.

For `C[C@H](N)C(=O)NCC(=O)OCC#CI` [Compound 17, L-alanylglycine iodopropargyl ester trifluoroacetate], the MIC in assay [1] (read-out: MIC (F) ANIG, M9G (minimal salts media with glucose), Table IIIc, iodopropargyl esters of peptides) was below 0.8 µg/mL; in assay [2] (read-out: MIC (F) APUL, M9G (minimal salts media with glucose), Table IIIc, iodopropargyl esters of peptides), below 0.8 µg/mL; in assay [12] (setting [17]) it was 12.5 µg/mL; in [12] (setting [18]) it was 50 µg/mL; in assay [12] (setting [19]), 25 µg/mL; in [13] (setting [25]) it was 100 µg/mL. Also, the minimal inhibitory concentration (MIC) in assay [14] (setting [25]), in assay [15] (setting [25]) and in assay [16] (setting [25]) was 100 µg/mL each time. Also, the inhibition of growth at 25 ppm in [3] turned out to be 75%; in [4], 100%; in assay [5] it was 50%; in assay [6] it was 100%; in assay [7], 100%; in [8], 100%. The inhibition of growth at 25 ppm in assay [9] was 100%; in assay [10], 75%; in assay [11] it was 0%.
